# Target: T1, human olfactory receptor OR7D4 (Homo sapiens, UniProt Q8NG98)
# T1 construct: transfected with a plasmid containing CRE-luciferase and a plasmid containing OR7D4; expressed in transfected cells; host or cells: HEK293T stably expressing olfactory chaperone proteins of the RTP family
# T1 sequence (Q8NG98 1-312): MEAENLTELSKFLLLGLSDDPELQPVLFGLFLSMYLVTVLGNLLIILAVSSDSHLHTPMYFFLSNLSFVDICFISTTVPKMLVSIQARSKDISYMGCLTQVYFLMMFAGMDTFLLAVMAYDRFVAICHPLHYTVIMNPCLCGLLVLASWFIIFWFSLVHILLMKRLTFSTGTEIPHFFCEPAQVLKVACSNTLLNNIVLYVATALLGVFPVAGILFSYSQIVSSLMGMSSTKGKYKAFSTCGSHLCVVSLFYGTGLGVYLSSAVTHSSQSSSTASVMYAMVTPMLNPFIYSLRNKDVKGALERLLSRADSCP
# Assay: OR7D4 luciferase gene reporter assay (antagonism of agonist-induced activation)
# Assay type: cell-based
# Settings: dose-response, luciferase assay; half decrease of the luciferase production obtained without antagonist; androstenone at 31.6 micromolar
# Procedure: Cells were maintained in minimal essential medium (EMEM, Lonza) containing 10% fetal bovine serum (M10). HEK293T stably expressing olfactory chaperone proteins from the RTP family as described in WO 2006/002161 (introduced here as a reference) were generated by transfecting HEK293T cells with expression vector containing the chaperone gene sequences and a resistance gene to puromycin, using Lipofectamine 2000. A recombinant cell population was selected by adding 10 μg/ml of puromycin into the culture medium. Monoclonal populations were further obtained by limit dilution procedure. Briefly, a cell suspension was diluted to contain 1 cell per ml and this dilution was dispatched in poly-D-lysine-coated 96 well plates (200 μl of dilution per well). After 5 days of culture, the presence and number of cell colonies per well was checked under a phase contrast microscope. After 5 additional days of culture, wells containing a single colony were harvested and each collected population was amplified independently.
# The 5-alpha-androst-16-ene-3-one, used as an agonist of the human olfactory receptor OR7D4 and the tested molecules were diluted at a concentration of 1 mole/litre (M) into dimethyl sulfoxide (DMSO) to generate stock solutions.
# For concentration-response analysis, serial dilutions of the tested molecules were prepared from stock solutions in EMEM plated into 96-well plates.
# Briefly, cells were plated on poly-D-lysine-coated 96-well plates (BD Bioscience, Erembodegem-Dorp, Belgium) and transfected with a plasmid containing CRE-luciferase and a plasmid containing OR7D4. Sixteen hours after transfection, the culture medium was replaced by serum-free EMEM containing the tested ligands at a determined concentration. After four hours of incubation at 37° C. degree, cells were lysed and processed for luminescence measurement according to the manufacturer's protocols. Luminescence emission was recorded on a Spectra Max M5 reader (Molecular Devices, Sunnyvale, Calif.). Results were expressed as percentage of the response induced by 10 μM of the adenylate cyclase activator Forskolin.
# The ability of the compounds of the invention to inhibit the activity of androstenone on OR7D4 receptor was assessed by the luciferase assay described above.
# To determine whether a molecule antagonizes OR7D4, this compound was introduced in the incubation medium of the Luciferase assay described above at a concentration of either 316 μM, 100 μM or 31.6 μM, along with the known activator of the receptor 5α-androst-16-en-3-one at a concentration of 31.6 μM. Molecules were considered as “hits” i.e., as having an antagonist effect on the receptor, if they induced a decrease of at least 50% of the luciferase production elicited upon activation of OR7D4 by 5α-androst-16-en-3-one.
# Putative antagonist molecule libraries containing compound 1 and other types of molecules were used to identify antagonist of the receptor OR7D4. The screening campaign was performed on the OR7D4 with a series of 112 putative antagonist molecules. In this screening campaign, compound 1 was identified as a hit.
# The compound 1 was further confirmed as antagonist of OR7D4 by performing dose-response analysis using the luciferase assay. Different concentrations of compound 1, ranging from 31.6 nM to 1 mM were tested on HEK293 cell expressing OR7D4 and stimulated with 31.6 μM of 5α-androst-16-en-3-one.
# The antagonistic property of compound 1 on OR7D4 was further confirmed by measuring the response of the OR7D4 to 5α-androsta-4,16-dien-3-one in presence of compound 1, using the luciferase assay as describe hereinabove. The observed inhibition was in the same range as the one observed when stimulating the receptor with 5α-androst-16-en-3-one.
# To further explore the antagonism on OR7D4, a series of compounds structurally related to compound 1 were synthesized and assessed as antagonists of OR7D4 by dose-response analysis using the luciferase assay. […]
row,Compound,IC50 [µM]
1,"CCOC(=O)/C(C)=C/C=C/c1cccc(OC)c1 [Compound 2, ethyl (2E,4E)-5-(3-methoxyphenyl)-2-methylpenta-2,4-dienoate]",25
2,"CCCc1ccccc1/C=C/C=C/C(=O)OCC [Compound 3, ethyl (2E,4E)-5-(2-propylphenyl)penta-2,4-dienoate]",50
3,"CCCCCc1ccccc1/C=C/C=C/C(=O)OCC [Compound 4, ethyl (2E,4E)-5-(2-pentylphenyl)penta-2,4-dienoate]",16
4,"CCCCCCC(/C=C/C(=O)OCC)=C\c1ccc(F)cc1 [Compound 5, ethyl (E)-4-((E)-4-fluorobenzylidene)dec-2-enoate]",14
5,"CCOC(=O)/C(C)=C/C(=C/c1ccccc1OCC)CC [Compound 6, ethyl (E)-4-((E)-2-ethoxybenzylidene)-2-methylhex-2-enoate]",25
6,"CCCCCCC(=C\c1ccc(C#N)cc1)/C=C(\C)C(=O)OCC [Compound 7, ethyl (E)-4-((E)-4-cyanobenzylidene)-2-methyldec-2-enoate]",13
7,CCOC(=O)/C(C)=C/C(=C/c1ccccc1)C(C)CC(C)(C)C (stereo not drawn) [Compound 11],8
8,CCCCCC(/C=C/C(=O)OCC)=C\c1ccccc1 [Compound 14],14
9,CCCCCCC(/C=C(\C)C#N)=C\c1ccccc1 [Compound 17],12
10,CCOc1ccccc1/C=C(/C=C(\C)C(=O)O)CC [Compound 20],32
11,"CCCCCCC(=C\c1ccccc1)/C=C(\C)C(=O)O [Compound 21, 4-benzylidene-2-methyldec-2-enoic Acid]",62
12,"CCCCCCC(=C\c1ccccc1)/C=C(\C)C(=O)NC [Compound 24, (E)-4-((E)-benzylidene)-N,2-dimethyldec-2-enamide]",2
13,"CCCCCCC(/C=C/C(C)=O)=C\c1ccccc1 [Compound 30, (E)-5-((E)-benzylidene)undec-3-en-2-one]",6
14,"COc1cccc(/C=C/C=C(\C)CO)c1 [Compound 31, (2E,4E)-5-(3-methoxyphenyl)-2-methylpenta-2,4-dien-1-ol]",63
15,"CCCc1ccccc1/C=C/C=C/CO [Compound 32, (2E,4E)-5-(2-propylphenyl)penta-2,4-dien-1-ol]",126
16,CCCCCC(/C=C(\C)CO)=C\c1ccccc1 [Compound 34],19
17,CCCC(/C=C(\C)CO)=C\c1ccccc1 [Compound 35],53
18,"COc1cccc(/C=C/C=C(\C)C=O)c1 [Compound 36, (2E,4E)-5-(3-methoxyphenyl)-2-methylpenta-2,4-dienal]",79
19,"CCCCCCC(/C=C/C=O)=C\c1ccccc1 [Compound 39, (E)-4-((E)-benzylidene)dec-2-enal]",6
20,CCCCCC(/C=C(\C)C=O)=C\c1ccccc1 [Compound 40],29
21,CCCC(/C=C(\C)C=O)=C\c1ccccc1 [Compound 41],187
22,"CCCCCCC(/C=C(\C)COC)=C\c1ccccc1 [Compound 42, ((E)-2-((E)-3-methoxy-2-methylprop-1-en-1-yl)oct-1-en-1-yl)benzene]",25

# Further lines, results first:
row,IC50 [µM],Compound
1,1,C=CCCCCC(=C\c1ccccc1)/C=C(\C)C(=O)OCC [Compound 8]
2,2,CCCCCCC(/C=C/C(=O)OC)=C\c1ccccc1 [Compound 10]
3,8,CCOC(=O)/C(C)=C/C(=C/c1ccccc1)CC1CCCC1 [Compound 12]
4,7,CCCCCCC(/C=C/C(=O)OCC)=C\c1ccccc1 [Compound 13]
5,85,CCCC(/C=C/C(=O)OCC)=C\c1ccccc1 [Compound 15]
6,8,"CCCCCCC(/C=C/C#N)=C\c1ccccc1 [Compound 16, 4-benzylidenedec-2-enenitrile]"
7,45,"CCCCCCC(=C\c1ccc(C#N)cc1)/C=C(\C)C(=O)O [Compound 19, (E)-4-((E)-4-cyanobenzylidene)-2-methyldec-2-enoic Acid]"
8,75,CCCCCCC(/C=C/C(=O)O)=C\c1ccccc1 [Compound 22]
9,1,"CCCCCCC(=C\c1ccccc1)/C=C(\C)C(N)=O [Compound 23, (E)-4-((E)-benzylidene)-2-methyldec-2-enamide]"
10,126,"CCc1cccc(/C=C(C)/C=C/C(=O)N(C)C)c1 [Compound 25, (2E,4E)-5-(3-ethylphenyl)-N,N,4-trimethylpenta-2,4-dienamide]"
11,14,CCCCCCC(/C=C/C(N)=O)=C\c1ccccc1 [Compound 27]
12,2,"CCCCCCC(=C\c1ccccc1)/C=C(\C)C(=O)N(C)C [Compound 28, (E)-4-((E)-benzylidene)-N,N,2-trimethyldec-2-enamide]"
13,1,"CCCCCCC(=C\c1ccccc1)/C=C(\C)C(C)=O [Compound 29, 5-benzylidene-3-methylundec-3-en-2-one]"
14,18,"CCCCCCC(/C=C/CO)=C\c1ccc(F)cc1 [Compound 33, (E)-4-((E)-4-fluorobenzylidene)dec-2-en-1-ol]"
15,126,"CCCc1ccccc1/C=C/C=C/C=O [Compound 37, (2E,4E)-5-(2-propylphenyl)penta-2,4-dienal]"
16,126,"CCCCCCC(/C=C(\C)COCC)=C\c1ccccc1 [Compound 43, ((E)-2-((E)-3-ethoxy-2-methylprop-1-en-1-yl)oct-1-en-1-yl)benzene]"
17,22,"CCCCCCC(/C=C(\C)COCC)=C\c1ccc(F)cc1 [Compound 44, 1-((E)-2-((E)-3-ethoxy-2-methylprop-1-en-1-yl)oct-1-en-1-yl)-4-fluorobenzene]"
18,4,"CCCCCC(/C=C/C(=O)OCC)=C\c1ccc(F)cc1 [Compound 45, ethyl (E)-4-((E)-4-fluorobenzylidene)non-2-enoate]"
19,25,"CCCCCC(/C=C/C(=O)OC)=C\c1ccc(F)cc1 [Compound 46, methyl (2E,4E)-4-(4-fluorobenzylidene)-2-nonenoate]"
20,25,(E)-4-((E)-4-fluorobenzylidene)dec-2-enal [Compound 38]
